Source: patent publication US8933230B2, “Phosphorus-containing group-substituted quinoline, its preparation process, medical composition containing the compounds and application” (priority 2011, dated 2015)

Columns and labels:
[1] = target: T1, PKNB (M. tuberculosis) (Mycobacterium tuberculosis, UniProt P9WI81); assay: KinomeScan kinase panel; format: binding
T1 construct: purchased DiscoveRx Corporation (KinomeScan)

[2] = target: T2, PFCDPK1 (P. falciparum) (Plasmodium falciparum, UniProt P62344); assay: KinomeScan kinase panel; format: binding
T2 construct: purchased DiscoveRx Corporation (KinomeScan)
T2 sequence (P62344 whole entry): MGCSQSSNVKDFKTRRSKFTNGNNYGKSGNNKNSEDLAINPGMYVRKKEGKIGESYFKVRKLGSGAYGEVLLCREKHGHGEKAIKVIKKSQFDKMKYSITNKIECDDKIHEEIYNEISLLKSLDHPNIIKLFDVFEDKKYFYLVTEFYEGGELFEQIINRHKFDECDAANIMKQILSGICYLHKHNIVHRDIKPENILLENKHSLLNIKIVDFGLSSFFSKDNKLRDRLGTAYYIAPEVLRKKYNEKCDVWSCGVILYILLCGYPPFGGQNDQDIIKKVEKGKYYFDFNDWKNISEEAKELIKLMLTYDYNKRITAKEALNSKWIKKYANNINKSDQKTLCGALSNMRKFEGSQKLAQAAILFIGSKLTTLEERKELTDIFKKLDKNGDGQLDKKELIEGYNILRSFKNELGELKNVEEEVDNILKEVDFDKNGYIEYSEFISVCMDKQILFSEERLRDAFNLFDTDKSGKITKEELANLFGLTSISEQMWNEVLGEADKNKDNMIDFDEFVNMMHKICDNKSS

[3] = target: T3, c-KIT (Homo sapiens, UniProt P10721); assay: c-KIT kinase phosphorylation in M07e cells (sandwich ELISA); format: cell-based; details: SCF 100 ng/mL 3 min, mean value of two testing results, read-out: IC50 values in the cell, c-KIT
T3 construct: cell line M07e having endogenous high expression wild type c-KIT; endogenous in cells; host or cells: M07e
T3 sequence (P10721 26-976): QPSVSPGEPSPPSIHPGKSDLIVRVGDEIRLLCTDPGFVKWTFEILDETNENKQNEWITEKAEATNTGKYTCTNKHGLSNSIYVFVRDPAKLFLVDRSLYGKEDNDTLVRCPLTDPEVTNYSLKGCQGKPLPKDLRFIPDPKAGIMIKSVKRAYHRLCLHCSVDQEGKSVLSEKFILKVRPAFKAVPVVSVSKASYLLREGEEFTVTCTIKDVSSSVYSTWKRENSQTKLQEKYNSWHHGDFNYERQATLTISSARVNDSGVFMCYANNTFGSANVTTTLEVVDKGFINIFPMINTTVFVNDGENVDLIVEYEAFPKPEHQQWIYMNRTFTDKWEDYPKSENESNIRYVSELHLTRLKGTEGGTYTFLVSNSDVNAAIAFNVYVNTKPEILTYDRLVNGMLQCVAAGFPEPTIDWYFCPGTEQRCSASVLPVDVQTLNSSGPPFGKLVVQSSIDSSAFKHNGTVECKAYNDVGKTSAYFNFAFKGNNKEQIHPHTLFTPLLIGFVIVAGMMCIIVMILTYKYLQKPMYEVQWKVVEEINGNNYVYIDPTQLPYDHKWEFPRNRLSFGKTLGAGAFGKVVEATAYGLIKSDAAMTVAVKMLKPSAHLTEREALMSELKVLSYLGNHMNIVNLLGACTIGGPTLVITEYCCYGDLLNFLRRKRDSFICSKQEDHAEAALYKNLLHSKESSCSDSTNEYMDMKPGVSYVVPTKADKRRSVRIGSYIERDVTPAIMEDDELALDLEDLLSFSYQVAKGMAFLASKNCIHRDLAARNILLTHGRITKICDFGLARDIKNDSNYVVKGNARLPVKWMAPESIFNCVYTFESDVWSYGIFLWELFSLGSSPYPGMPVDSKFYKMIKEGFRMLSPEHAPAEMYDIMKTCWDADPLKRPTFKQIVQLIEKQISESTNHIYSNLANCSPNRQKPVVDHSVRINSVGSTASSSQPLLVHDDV
Description: (§1) Inhibitory activity on the kinases in tumor cells: In this example, the compound prepared in Example 10, N1-[4-[[7-[[1-(diethoxyphosphorylmethyl)-4-piperidinyl]methoxyl]-6-methoxyl-4-quinolyl]oxyl]-3-fluorophenyl]-N1′-(4-fluorophenyl)cyclopropane-1,1-dicarboxamide is tested in tumor cells by ProQinase GmbH corporation (Breisacher Str. 117, D-79106 Freiburg, Germany. www.proqinase.com) for the inhibitory activity on the following kinases: c-KIT, c-MET, VEGFR2 and PDGFR-β. The test includes the following steps:
(§2) Firstly, the compound according to present invention is dissolved in dimethyl sulfoxide (DMSO) to prepare a 10 mM stock solution, which is diluted serially according to the concentration range shown in Table 6:
c-KIT kinase: in the test experiment of KIT kinase phosphorylation in the cells, human acute megakaryocytic leukemia cell line M07e having endogenous high expression wild type c-KIT is used. When these cells are stimulated with human stem cell factor (SCF), the tyrosine of KIT receptor kinases is self-phosphorylated. M07e cells are inoculated in RPMI containing 20% fetal calf serum (FCS) and 10 ng/ml GM-CSF in a multi-well cell culture dish. The compound of the invention is added to the cells after overnight starvation of serum and growth factor, then the cells are cultured in a medium without serum. […]

[4] = target: T4, c-MET (Homo sapiens, UniProt P08581); assay: c-MET kinase phosphorylation in MKN45 cells (sandwich ELISA); format: cell-based; details: without stimulation, mean value of two testing results, read-out: IC50 values in the cell, c-MET
T4 construct: cell line MKN45 having endogenous high expression wild type c-MET; endogenous in cells; host or cells: MKN45
T4 sequence (P08581 25-1390): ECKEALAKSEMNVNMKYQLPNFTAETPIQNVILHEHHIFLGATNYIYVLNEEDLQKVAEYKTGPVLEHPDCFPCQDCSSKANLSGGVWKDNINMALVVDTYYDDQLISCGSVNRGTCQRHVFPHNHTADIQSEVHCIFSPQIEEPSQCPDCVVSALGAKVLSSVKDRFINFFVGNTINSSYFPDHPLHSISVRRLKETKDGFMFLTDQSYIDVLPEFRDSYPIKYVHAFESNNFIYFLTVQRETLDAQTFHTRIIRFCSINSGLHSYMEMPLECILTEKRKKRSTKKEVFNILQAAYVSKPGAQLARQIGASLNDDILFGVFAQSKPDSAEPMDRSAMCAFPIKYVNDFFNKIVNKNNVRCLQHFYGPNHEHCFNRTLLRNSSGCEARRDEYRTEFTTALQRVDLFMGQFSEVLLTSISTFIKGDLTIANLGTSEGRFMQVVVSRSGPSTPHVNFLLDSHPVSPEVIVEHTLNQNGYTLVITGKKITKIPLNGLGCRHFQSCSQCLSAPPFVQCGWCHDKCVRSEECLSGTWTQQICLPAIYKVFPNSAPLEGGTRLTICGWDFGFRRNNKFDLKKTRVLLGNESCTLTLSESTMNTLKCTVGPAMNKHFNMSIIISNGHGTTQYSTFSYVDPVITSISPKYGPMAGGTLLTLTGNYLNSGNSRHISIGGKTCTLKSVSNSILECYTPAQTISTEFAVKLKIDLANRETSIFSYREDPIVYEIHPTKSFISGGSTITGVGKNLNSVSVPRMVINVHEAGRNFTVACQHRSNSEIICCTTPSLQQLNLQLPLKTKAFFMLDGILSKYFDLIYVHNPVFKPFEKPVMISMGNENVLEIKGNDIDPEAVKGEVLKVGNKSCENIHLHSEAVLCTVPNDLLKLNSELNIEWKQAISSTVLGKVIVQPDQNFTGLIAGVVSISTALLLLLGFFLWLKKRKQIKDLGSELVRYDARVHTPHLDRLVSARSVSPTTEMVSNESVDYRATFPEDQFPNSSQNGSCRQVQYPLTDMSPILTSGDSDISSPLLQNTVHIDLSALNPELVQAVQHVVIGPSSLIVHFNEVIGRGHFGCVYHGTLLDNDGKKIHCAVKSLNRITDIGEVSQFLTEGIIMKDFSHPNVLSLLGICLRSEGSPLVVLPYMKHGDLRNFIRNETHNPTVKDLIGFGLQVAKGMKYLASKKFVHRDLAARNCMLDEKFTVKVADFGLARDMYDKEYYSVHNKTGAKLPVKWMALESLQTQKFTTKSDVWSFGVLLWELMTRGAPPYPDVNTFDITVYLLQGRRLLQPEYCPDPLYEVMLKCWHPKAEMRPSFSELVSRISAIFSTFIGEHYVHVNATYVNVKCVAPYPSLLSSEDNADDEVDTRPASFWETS
Description: as §1, §2
c-MET kinase: in the test experiment of c-MET kinase phosphorylation in the cells, human gastric cancer cell line MKN45 having endogenous high expression wild type c-MET (wild-type c-MET) is used. Such high expression of c-MET causes the tyrosine of c-MET receptor kinases constantly self-phosphorylated without ligands. MKN45 cells are inoculated in DMEM culture solution containing 10% FCS in a multi-well cell culture dish. The compound of the invention is added to the cells after serum overnight starvation, then the cells are cultured in a medium without serum. […]

[5] = target: T5, VEGFR2 (Homo sapiens, UniProt P35968); assay: VEGFR2 kinase phosphorylation in HUE cells (sandwich ELISA); format: cell-based; set-up: cell line HUE having endogenous high expression vascular endothelial growth factor-R2 (VEGFR2); endogenous in cells; host or cells: HUE; details: VEGF-A 100 ng/mL 3 min, mean value of two testing results, read-out: IC50 values in the cell, VEGFR2
T5 sequence (P35968 20-1356): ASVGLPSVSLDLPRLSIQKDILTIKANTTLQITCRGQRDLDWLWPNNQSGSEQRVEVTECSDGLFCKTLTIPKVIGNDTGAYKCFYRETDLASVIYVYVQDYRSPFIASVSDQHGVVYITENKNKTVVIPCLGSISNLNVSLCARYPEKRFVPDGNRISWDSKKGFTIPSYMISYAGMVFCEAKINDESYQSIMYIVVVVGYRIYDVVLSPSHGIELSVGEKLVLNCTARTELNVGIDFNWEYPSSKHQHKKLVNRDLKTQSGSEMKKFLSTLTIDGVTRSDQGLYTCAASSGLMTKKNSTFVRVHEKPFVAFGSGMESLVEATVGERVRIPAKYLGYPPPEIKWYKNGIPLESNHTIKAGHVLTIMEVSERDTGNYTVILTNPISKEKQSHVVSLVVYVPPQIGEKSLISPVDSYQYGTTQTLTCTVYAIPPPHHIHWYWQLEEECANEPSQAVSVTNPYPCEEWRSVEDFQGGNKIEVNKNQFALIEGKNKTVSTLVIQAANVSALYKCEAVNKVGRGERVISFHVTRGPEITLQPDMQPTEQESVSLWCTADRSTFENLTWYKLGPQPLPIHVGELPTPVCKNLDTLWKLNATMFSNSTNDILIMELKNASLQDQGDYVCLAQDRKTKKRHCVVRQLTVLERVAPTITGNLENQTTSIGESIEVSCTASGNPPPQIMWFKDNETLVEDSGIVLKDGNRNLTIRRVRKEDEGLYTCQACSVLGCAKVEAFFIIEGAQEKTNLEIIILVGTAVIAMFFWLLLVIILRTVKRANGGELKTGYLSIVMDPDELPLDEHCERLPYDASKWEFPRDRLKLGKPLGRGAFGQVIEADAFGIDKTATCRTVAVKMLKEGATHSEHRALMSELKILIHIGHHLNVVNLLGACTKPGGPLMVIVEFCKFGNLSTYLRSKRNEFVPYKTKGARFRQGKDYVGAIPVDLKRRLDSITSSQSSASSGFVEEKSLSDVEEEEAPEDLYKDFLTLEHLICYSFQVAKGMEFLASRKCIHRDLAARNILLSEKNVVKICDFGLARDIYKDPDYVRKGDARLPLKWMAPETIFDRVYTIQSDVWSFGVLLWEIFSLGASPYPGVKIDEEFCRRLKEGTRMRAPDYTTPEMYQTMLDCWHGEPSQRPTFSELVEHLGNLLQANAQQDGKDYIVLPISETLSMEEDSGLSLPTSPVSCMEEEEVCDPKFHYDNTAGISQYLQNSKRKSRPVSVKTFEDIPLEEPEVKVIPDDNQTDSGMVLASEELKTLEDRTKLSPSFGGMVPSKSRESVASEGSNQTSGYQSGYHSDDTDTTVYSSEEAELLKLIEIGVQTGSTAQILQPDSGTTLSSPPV
Description: as §1, §2
VEGFR2 kinase: in the test experiment of VEGFR2 kinase phosphorylation in the cells, a spontaneous immortalized human umbilical vein endothelial cell line HUE having endogenous high expression vascular endothelial growth factor-R2 (VEGFR2) is used. When these cells are simulated with human vascular endothelial growth factor-A (VEGF-A), it causes the tyrosine of VEGFR2 receptor kinases self-phosphorylated. HUE cells are inoculated in endothelial cell growth medium (ECGM) containing 10% FCS in a multi-well cell culture dish. […]

[6] = target: T5, VEGFR2; assay: KinomeScan kinase panel; format: binding; set-up: purchased DiscoveRx Corporation (KinomeScan service)
Description: In this example, the compound prepared in Example 10, N1-[4-[[7-[[1-(diethoxyphosphorylmethyl)-4-piperidinyl]methoxyl]-6-methoxyl-4-quinolyl]oxyl]-3-fluorophenyl]-N1′-(4-fluorophenyl)cyclopropane-1,1-dicarboxamide is tested for the inhibitory effect in the 442-kinase panel of KinomeScan™ (www.kinomescan.com) from DiscoveRx Corporation (4215 Sorrento Valley Blvd, San Diego, Calif. 92121) at 1000 nM of the compound concentration, the results are shown in the following Table 5:
For the detailed information of the screening technique, see Fabian, M. A. et al, Nat., Biotechnol. 2005, 23, 329 and Karaman, M. W. et al, Nat., Biotechnol. 2008, 26, 127. It can be seen from the following representative results that, the compound according to the present invention has significant inhibitory effect on kinases including c-Met, KDR or VEGFR2, RET, PDGFR-β, c-KIT, Flt3, MEK5, DDR1, LOK, CSF1R, EPHA7, EPHA8, EPHB6, MKNK2, BLK, HIPK4, HCK, Flt4 and the mutants thereof

T1 sequence (P9WI81 whole entry): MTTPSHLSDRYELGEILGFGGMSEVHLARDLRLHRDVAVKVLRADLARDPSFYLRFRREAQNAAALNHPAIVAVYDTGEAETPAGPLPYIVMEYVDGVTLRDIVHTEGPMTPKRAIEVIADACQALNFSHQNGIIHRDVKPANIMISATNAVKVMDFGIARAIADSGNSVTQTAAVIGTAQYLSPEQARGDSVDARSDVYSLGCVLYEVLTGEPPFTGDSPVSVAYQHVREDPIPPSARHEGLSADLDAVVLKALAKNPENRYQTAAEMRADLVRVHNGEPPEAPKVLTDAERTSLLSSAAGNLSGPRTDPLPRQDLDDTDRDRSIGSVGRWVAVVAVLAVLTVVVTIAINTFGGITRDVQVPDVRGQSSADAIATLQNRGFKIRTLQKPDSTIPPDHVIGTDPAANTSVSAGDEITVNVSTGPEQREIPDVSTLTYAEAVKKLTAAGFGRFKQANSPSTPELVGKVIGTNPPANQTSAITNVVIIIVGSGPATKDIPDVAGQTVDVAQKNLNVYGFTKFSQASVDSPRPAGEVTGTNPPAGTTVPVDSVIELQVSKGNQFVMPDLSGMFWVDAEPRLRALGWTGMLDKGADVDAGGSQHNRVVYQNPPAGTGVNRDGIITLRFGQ

For CCOP(=O)(CN1CCC(COc2cc3nccc(Oc4ccc(NC(=O)C5(C(=O)Nc6ccc(F)cc6)CC5)cc4F)c3cc2OC)CC1)OCC [Example 10, N1-[4-[[7-[[1-(diethoxyphosphorylmethyl)-4-piperidinyl]methoxyl]-6-methoxyl-4-quinolyl]oxyl]-3-fluorophenyl]-N1′-(4-fluorophenyl)cyclopropane-1,1-dicarboxamide], the “% Ctrl@1000 nM” value [1] was 96 % Ctrl, the “% Ctrl@1000 nM” value [2] was 84 % Ctrl and the IC50 [3] was 27 nM. For the same molecule, the IC50 [4] was 17 nM, the IC50 [5] was 0.43 nM and the “% Ctrl@1000 nM” value [6] was 3.9 % Ctrl.
